Measured values published in patent US11414424B2, “Cardiac sarcomere inhibitors” (Cytokinetics, Inc., priority 2018, dated 2022).

These molecules were tested on bovine cardiac myofibrils (assay: Myofibril assay: PK/LDH-coupled steady-state ATPase activity of skinned bovine cardiac myofibrils). Settings: Ca2+ activating to 75% of maximal rate.
Type: biochemical
How it was run: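 Steady-state ATPase of detergent-skinned bovine left-ventricular myofibrils (1 mg/mL), PK/LDH-coupled NADH read at 340 nm, in PIPES/MgCl2 buffer pH 6.8 with 50 μM ATP, 0.6 mM EGTA and CaCl2 set for 50% or 75% activation. Inhibition of activity measured.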

Row | CDMF75 IC15 [µM] | SMILES
1 | 16.4 | CC(=O)N1CC(CC2C(=O)N(c3ncc(Cl)cc3F)CC(=O)N2Cc2ccc(Cl)cc2)C1 (stereo not drawn) [Compound 662, 3-((1-acetylazetidin-3-yl)methyl)-l-(5-chloro-3-fluoropyridin-2-yl)-4-(4-chlorobenzyl)piperazine-2,5-dione]
2 | 7.3 | Cc1cc(Cl)cnc1N1CC(=O)N(Cc2ccc(Cl)cc2)C(C2(C)COC2)C1=O (centres unmarked) [Compound 663, 1-(5-chloro-3-methylpyridin-2-yl)-4-(4-chlorobenzyl)-3-(3-methyloxetan-3-yl)-piperazine-2,5-dione]
3 | 2.9 | Cc1ccc(CN2C(=O)CN(c3ncc(Cl)cc3F)C(=O)C2C2COC2)cc1F (centres unmarked) [Compound 664, 1-(5-chloro-3-fluoropyridin-2-yl)-4-(3-fluoro-4-methylbenzyl)-3-(oxetan-3-yl)piperazine-2,5-dione]
4 | 7.3 | CCc1ccc(CN2C(=O)CN(c3ncc(Cl)cc3F)C(=O)C2C2COC2)cc1 (centres unmarked) [Compound 665, 1-(5-chloro-3-fluoropyridin-2-yl)-4-(4-ethylbenzyl)-3-(oxetan-3-yl)piperazine-2,5-dione]
5 | 2.3 | Cc1ccc(CN2C(=O)CN(c3ncc(Cl)cc3F)C(=O)C2C2COC2)cc1 (centres unmarked) [Compound 666, 1-(5-chloro-3-fluoropyridin-2-yl)-4-(4-methylbenzyl)-3-(oxetan-3-yl)piperazine-2,5-dione]
6 | 1.1 | Cc1cc(CN2C(=O)CN(c3ncc(Cl)cc3F)C(=O)C2C2COC2)ccc1F (centres unmarked) [Compound 667, 1-(5-chloro-3-fluoropyridin-2-yl)-4-(4-fluoro-3-methyl-benzyl)-3-(oxetan-3-yl)-piperazine-2,5-dione]
7 | 1.4 | O=C1C(C2COC2)N(Cc2ccc(F)c(Cl)c2)C(=O)CN1c1ncc(Cl)cc1F (centres unmarked) [Compound 668, 1-(5-chloro-3-fluoropyridin-2-yl)-4-(3-chloro-4-fluorobenzyl)-3-(oxetan-3-yl)piperazine-2,5-dione]
8 | 6.2 | O=C1C(C2CCSCC2)N(Cc2ccc(C(F)(F)F)cc2)C(=O)CN1c1ncc(Cl)cc1F (centres unmarked) [Compound 687, 1-(5-chloro-3-fluoropyridin-2-yl)-3-(tetrahydro-2H-thiopyran-4-yl)-4-(4-(trifluoromethyl)benzyl)-piperazine-2,5-dione]
9 | 3.7 | O=C1C(C2CCOCC2)N(Cc2ccc(C(F)(F)F)cc2)C(=O)CN1c1ncc(Cl)cc1F (centres unmarked) [Compound 688, 1-(5-chloro-3-fluoropyridin-2-yl)-3-(tetrahydro-2H-pyran-4-yl)-4-(4-(trifluoro-methyl)benzyl)piperazine-2,5-dione]
10 | 27.9 | O=C1C(C2CCS(=O)(=O)CC2)N(Cc2ccc(C(F)(F)F)cc2)C(=O)CN1c1ncc(Cl)cc1F (centres unmarked) [Compound 689, 1-(5-chloro-3-fluoropyridin-2-yl)-3-(1,1-dioxidotetra-hydro-2H-thiopyran-4-yl)-4-(4-(trifluoromethyl)-benzyl)piperazine-2,5-dione]
11 | 3.4 | O=C1C(C2COC2)N(Cc2ccc(F)cc2)C(=O)CN1c1ccc(Br)cc1F (centres unmarked) [Compound 700, 1-(4-bromo-2-fluoro-phenyl)-4-(4-fluorobenzyl)-3-(oxetan-3-yl)piperazine-2,5-dione]
12 | 3.9 | CC(=O)N1CC2(C1)C(=O)N(c1ccc(-c3ncon3)cc1F)CC(=O)N2Cc1ccc(C(F)(F)F)cc1 [Compound 701, 2-acetyl-8-(2-fluoro-4-(1,2,4-oxadiazol-3-yl)phenyl)-5-(4-(trifluoromethyl)benzyl)-2,5,8-triazaspiro[3.5]nonane-6,9-dione]
13 | 25.5 | CC(=O)N1CC2(C1)C(=O)N(c1ccc(-c3noc(C)n3)cc1F)CC(=O)N2Cc1ccc(C(F)(F)F)cc1 [Compound 702]
14 | 4.5 | N#Cc1ccc(N2CC(=O)N(Cc3ccc(F)cc3)C(C3COC3)C2=O)c(F)c1 (centres unmarked) [Compound 706, 3-fluoro-4-(4-(4-fluoro-benzyl)-3-(oxetan-3-yl)-2,5-dioxopiperazin-1-yl)benzonitrile]
